Test results taken from patent publication US11034669B2, “Pyrrole and pyrazole compounds and methods of use thereof” (Nuvation Bio Inc., priority 2018, dated 2021).

Assays:
LNCaP-abl cells = experiment: Cell proliferation assay, LNCaP-abl (CellTiter-Glo); format: cell-based; conditions: three days
Experimental: LNCaP-abl (3,000 cells/well, received from Dr. Myles Brown, Dana Farber Cancer Institute), 22RV 1 (1,000 cells/well), LNCaP (5,000 cells/well), or COS (3,000 cells/well) cells were plated in 96 well plates in 50 μl RPMI+10% FBS (Fisher Scientific, Waltham, Mass.). LNCaP, COS, and 22RV 1 cells were obtained from ATCC. Cells were treated in RPMI+10% FBS with test articles, ranging from 1 nM to 10 μM. Three days later, viable cells (LNCaP-abl, 22RV 1, and COS) were measured by CellTiter-Glo assay (Promega, Madison, Wis.). For LNCaP cells, medium containing test article was changed after 3 days of treatment, and after an additional 3 days of culture, viable cells were measured by CellTiter-Glo assay.

Human AR = molecular target: T1, Human AR (Homo sapiens, UniProt P10275); experiment: AR antagonist assay (GRE-LUC luciferase reporter, with 0.1 nM R1881); format: cell-based; conditions: read-out: AR Antagonism IC50
T1 construct: expressed in transfected cells; host or cells: HEK-293 cells
T1 sequence (P10275 1-920): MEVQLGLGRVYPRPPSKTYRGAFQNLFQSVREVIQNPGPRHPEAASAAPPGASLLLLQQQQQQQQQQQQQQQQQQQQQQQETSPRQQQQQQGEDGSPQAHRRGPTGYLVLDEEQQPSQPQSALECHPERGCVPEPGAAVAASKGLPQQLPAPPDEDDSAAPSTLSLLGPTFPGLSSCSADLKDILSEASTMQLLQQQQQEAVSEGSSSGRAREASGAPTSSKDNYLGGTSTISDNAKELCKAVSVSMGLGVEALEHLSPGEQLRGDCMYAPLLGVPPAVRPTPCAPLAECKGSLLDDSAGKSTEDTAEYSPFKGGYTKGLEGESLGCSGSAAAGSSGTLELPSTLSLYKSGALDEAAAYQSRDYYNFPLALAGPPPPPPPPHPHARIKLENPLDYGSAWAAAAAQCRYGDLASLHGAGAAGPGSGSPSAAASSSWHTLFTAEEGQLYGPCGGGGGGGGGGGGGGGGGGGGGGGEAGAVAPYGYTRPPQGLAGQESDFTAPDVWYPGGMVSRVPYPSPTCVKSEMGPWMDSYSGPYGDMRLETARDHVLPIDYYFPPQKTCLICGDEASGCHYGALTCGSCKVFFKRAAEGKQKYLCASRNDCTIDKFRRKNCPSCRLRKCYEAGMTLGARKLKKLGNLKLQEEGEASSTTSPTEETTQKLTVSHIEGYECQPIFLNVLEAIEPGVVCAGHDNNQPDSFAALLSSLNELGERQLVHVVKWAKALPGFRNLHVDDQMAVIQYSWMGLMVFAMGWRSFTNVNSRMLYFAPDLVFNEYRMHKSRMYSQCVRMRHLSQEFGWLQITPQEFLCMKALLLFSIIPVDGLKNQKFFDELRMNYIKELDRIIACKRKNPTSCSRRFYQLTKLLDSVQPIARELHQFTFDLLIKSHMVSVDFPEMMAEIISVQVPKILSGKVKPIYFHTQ
Experimental: Human AR cDNA cloned into pCMV vector, GRE-LUC, and CMV-renilla-LUC were used to transfect cells. HEK-293 cells (ATCC) were plated at 120,000 cells per well of a 24 well plate in DME+5% csFBS (Fisher Scientific, Waltham, Mass.). The cells were transfected using Lipofectamine (Life Technologies, Carlsbad, Calif.) with 0.25 μg GRE-LUC, 0.010 μg CMV-LUC (renilla luciferase) and 25 ng of the AR. […] Luciferase assay was performed 48 hrs after transfection. Firefly luciferase assay values were normalized to renilla luciferase values and were graphed using graphpad prism software (La Jolla, Calif.).

GR = molecular target: T2, GR (Homo sapiens, UniProt P04150); experiment: GR antagonist assay (GRE-LUC luciferase reporter, with 0.1 nM dexamethasone)
T2 sequence (P04150 1-777): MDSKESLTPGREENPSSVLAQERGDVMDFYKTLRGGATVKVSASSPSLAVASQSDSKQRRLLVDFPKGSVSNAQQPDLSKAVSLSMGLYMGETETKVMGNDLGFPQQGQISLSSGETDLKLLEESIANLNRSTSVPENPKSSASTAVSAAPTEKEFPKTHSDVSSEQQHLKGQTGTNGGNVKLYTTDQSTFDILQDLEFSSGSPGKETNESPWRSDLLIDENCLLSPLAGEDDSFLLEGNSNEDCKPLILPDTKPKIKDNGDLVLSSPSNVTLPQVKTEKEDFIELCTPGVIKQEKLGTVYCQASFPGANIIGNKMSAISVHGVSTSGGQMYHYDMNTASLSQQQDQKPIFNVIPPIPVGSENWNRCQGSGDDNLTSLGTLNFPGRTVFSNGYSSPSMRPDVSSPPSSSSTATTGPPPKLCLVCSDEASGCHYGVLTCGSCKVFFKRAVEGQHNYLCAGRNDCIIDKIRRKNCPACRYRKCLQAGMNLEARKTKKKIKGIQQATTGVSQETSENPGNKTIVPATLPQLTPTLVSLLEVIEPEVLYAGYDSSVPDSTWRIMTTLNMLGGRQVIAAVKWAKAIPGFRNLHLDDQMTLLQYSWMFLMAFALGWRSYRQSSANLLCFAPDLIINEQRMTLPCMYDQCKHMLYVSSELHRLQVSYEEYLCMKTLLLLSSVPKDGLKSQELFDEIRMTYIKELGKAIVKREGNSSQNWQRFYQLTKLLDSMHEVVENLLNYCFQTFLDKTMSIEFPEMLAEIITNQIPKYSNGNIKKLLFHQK
Experimental: COS-7 cells (ATCC, Manassas, Va.) were plated in 24 well plates in DME+5% csFBS without phenol red at 70,000 cells/well. Once the cells attached to the plates (typically after overnight incubation after plating), they were transfected in OPTIMEM medium (Life Technologies) using lipofectamine reagent (Life Technologies) with 0.25 μg GRE-LUC, 25 ng pCR3.1 GR, and 10 ng CMV-renilla LUC per well. Twenty-four hours after transfection, the cells were fed with DME+5% csFBS without phenol red (Fisher Scientific, Waltham, Mass.) and treated with the test compounds (1 μM to 10 μM dose range) in the presence of 0.1 nM dexamethasone (Sigma, St. Louis, Mo.). Sixteen to twenty-four hours after treatment, a luciferase assay was performed using the Dual Luciferase assay kit (Promega, Madison, Wis.). Firefly luciferase values were normalized to Renilla luciferase numbers.

Row | Structure (SMILES) | cell proliferation, % of vehicle at 3 μM (LNCaP-abl cells) | cell proliferation, % of vehicle at 10 μM (LNCaP-abl cells) | IC50 (Human AR) | IC50 (GR)
1 | Cc1ncsc1C(=O)NCc1ccc(-n2ccc(-c3ccc(C#N)c(C(F)(F)F)c3)n2)cc1F [Compound 15] | 66% | 3% | 0.28 µM | > 10 µM
2 | N#Cc1ccc(-c2ccn(-c3ccc(CNC(=O)c4ccccn4)c(F)c3)n2)cc1C(F)(F)F [Compound 16] | 89% | 98% | > 10 µM | > 10 µM
